From patent US12258337B2, “Bicyclic CX3CR1 receptor agonists” (Board of Regents, The University of Texas System, priority 2019, dated 2025)

How the values were obtained:
rCX3CR1 = molecular target: T1, rCX3CR1 (Rattus norvegicus, UniProt P35411); assay: Ga16 assay, CX3CR1 agonism, Ca2+ sensitive photo-protein readout (FLIPRTETRA); type: cell-based; details: rat CX3CR1 cell line
T1 construct: expressed in transfected cells; stably expresses a Ca2+ sensitive photo-protein
T1 sequence (P35411 1-354): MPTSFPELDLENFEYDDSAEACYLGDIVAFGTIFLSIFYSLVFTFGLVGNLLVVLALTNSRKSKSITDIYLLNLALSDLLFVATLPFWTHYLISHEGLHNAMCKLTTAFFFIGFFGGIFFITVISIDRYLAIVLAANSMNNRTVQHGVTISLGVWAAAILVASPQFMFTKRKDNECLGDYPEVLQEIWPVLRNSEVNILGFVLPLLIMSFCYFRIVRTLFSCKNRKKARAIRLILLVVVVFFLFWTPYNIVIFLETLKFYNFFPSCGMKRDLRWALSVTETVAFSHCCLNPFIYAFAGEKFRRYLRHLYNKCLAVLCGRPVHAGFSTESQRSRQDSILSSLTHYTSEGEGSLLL
Method in brief: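 Cells expressing human, mouse or rat CX3CR1 with a stably expressed Ca2+-sensitive photoprotein were loaded with 10 μM coelenterazine in tyrode buffer pH 7.4 for 3 h at room temperature. Agonist-mode luminescence kinetics were recorded for 90 s after compound injection on FLIPRTETRA. Dose-response runs were done in quadruplicate, with fractalkine as the reference agonist.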

mouse CX3CR1 receptor = molecular target: T2, mouse CX3CR1 receptor (Mus musculus, UniProt Q9Z0D9); assay: GTPγ[35S] Scintillation Proximity Assay, CHO-K1 cell membranes; type: biochemical
T2 construct: expressed in transfected cells; host or cells: CHO-K1 cell membranes
T2 sequence (Q9Z0D9 1-354): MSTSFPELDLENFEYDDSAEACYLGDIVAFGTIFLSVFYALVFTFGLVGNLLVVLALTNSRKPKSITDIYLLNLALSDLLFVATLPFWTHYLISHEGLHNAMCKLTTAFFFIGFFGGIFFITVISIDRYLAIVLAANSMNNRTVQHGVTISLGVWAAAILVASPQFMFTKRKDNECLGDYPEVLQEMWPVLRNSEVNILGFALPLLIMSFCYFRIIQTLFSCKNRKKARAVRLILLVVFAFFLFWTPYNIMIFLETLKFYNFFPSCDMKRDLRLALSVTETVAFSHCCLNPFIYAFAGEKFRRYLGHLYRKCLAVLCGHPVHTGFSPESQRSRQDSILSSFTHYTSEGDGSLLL
Description: (§1) GTPγ[^35S] Scintillation Proximity Assay
(§2) Compounds were tested for agonist activity at the mouse and human CX3CR1 receptor using cell membranes from CHO-K1 cells expressing recombinant mouse or human CX3CR1. For agonist testing, membranes are mixed with GDP. In parallel, GTPγ[^35S] is mixed with the beads just before starting the reaction. The following reagents are successively added in the wells of an Optiplate (Perkin Elmer): 50 μL of test or reference ligand, 10 μL of assay buffer, 20 μL of the membranes:GDP mix, and 20 μL of the GTPγ[^35S]:beads mix. The plates are covered with a top seal, mixed on an orbital shaker for 2 min, and then incubated for 1 hour at room temperature. Then the plates are centrifuged for 10 min at 2000 rpm, incubated at room temperature 1 hour and counted for 1 min/well with a PerkinElmer TopCount reader.

[1] = system: THP-1 cell adhesion to HepG2 cells; assay: CX3CR1-dependent THP-1 cell adhesion to HepG2 cells; type: cell-based; details: THP-1 pre-treated with compound 30 min, FIG. 1
Description: CX3CR1 Agonists Prevent CX3CR1-Dependent THP-1 Cell Adhesion to HepG2 Cells
This assay measures the adhesion of THP-1 monocytes, which constitutively express CX3CR1, to HepG2 cells, a fractalkine-expressing cell line. Briefly, HepG2 cells were seeded at 80,000 cells per well in 96-well plates and allowed to form a monolayer overnight. The following day, THP-1 cells (at 2×10^6 cells/mL) were fluorescently labeled with Calcein-AM (5 μM) and pre-treated with compound at the doses indicated for 30 min. Labeled THP-1 cells were subsequently seeded (50,000/well) into the HepG2-containing plates and incubated for 30 min before imaging for Calcein-AM signal on the INCell Analyzer Imaging System. After four washes, the plates were imaged once again to calculate THP-1 cell adhesion, as measured by the percentage of cells remaining on the plates. […] These agonists behave as functional antagonists in the cell adhesion assay by blocking the interaction between CX3CR1 and fractalkine.

hCX3CR1 = molecular target: T3, hCX3CR1 (Homo sapiens, UniProt P49238); assay: GTPγ[35S] Scintillation Proximity Assay, CHO-K1 cell membranes; type: biochemical; parameters: expressed in transfected cells; host or cells: CHO-K1 cell membranes
T3 sequence (P49238 1-355): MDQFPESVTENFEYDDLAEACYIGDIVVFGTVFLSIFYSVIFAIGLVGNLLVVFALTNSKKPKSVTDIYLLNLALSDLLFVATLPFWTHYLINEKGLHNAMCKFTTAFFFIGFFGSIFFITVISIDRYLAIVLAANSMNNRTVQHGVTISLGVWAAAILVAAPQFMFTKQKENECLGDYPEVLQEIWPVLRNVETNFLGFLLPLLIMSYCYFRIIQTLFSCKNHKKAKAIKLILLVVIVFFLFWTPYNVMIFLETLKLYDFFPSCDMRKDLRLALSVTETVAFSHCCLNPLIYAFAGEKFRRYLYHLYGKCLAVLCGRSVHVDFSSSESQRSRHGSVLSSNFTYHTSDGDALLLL
Description: as §1, §2

SMILES | EC50 (rCX3CR1) [µM] | other results
CN(C)CC1(CNC(=O)c2cc3c(s2)CCCCCC3)CC(O)C1 (stereo not shown) [Example 31, N-[[1-[(dimethylamino)methyl]-3-hydroxycyclobutyl]methyl]-4,5,6,7,8,9-hexahydrocycloocta[b]thiophene-2-carboxamide] | 14.8 | –
O=C(NCC1(CN2CCC(O)CC2)CCCC1)c1cc2c(s1)CCCCCC2 [Example 28, N-[[1-[(4-hydroxypiperidin-1-yl)methyl]cyclopentyl]methyl]-4,5,6,7,8,9-hexahydrocycloocta[b]thiophene-2-carboxamide] | 9.4 | –
CN(C)CC1(CNC(=O)c2cc3c(s2)CCCCCC3)CCCC1 [Example 2, N-[[1-[(dimethylamino)methyl]cyclopentyl]methyl]-4,5,6,7,8,9-hexahydrocycloocta[b]thiophene-2-carboxamide] | 8.5 | EC50 (mouse CX3CR1 receptor): 8.5 µM; Emax (mouse CX3CR1 receptor): 55%; THP-1 cell adhesion to HepG2 cells [1]: prevented THP-1 adhesion to HepG2 cells in a dose-dependent manner; EC50 (hCX3CR1): 0.8 µM; Emax (hCX3CR1): 80%
CC(C)(CNC(=O)c1cc2c(s1)CCCCCC2)CN1CCCCC1 [Example 13, N-(2,2-dimethyl-3-piperidin-1-ylpropyl)-4,5,6,7,8,9-hexahydrocycloocta[b]thiophene-2-carboxamide] | 16.9 | –
O=C(NCC1(CN2CCCC2)CCC1)c1cc2c(s1)CCCCCC2 [Example 21, N-[[1-(pyrrolidin-1-ylmethyl)cyclobutyl]methyl]-4,5,6,7,8,9-hexahydrocycloocta[b]thiophene-2-carboxamide] | 5.8 | –
O=C(NCC1(CN2CCCC(O)C2)CCCC1)c1cc2c(s1)CCCCCC2 (stereo not shown) [Example 27, N-[[1-[(3-hydroxypiperidin-1-yl)methyl]cyclopentyl]methyl]-4,5,6,7,8,9-hexahydrocycloocta[b]thiophene-2-carboxamide] | 10.8 | –
CN(C)CC(C)(C)CNC(=O)c1cc2c(s1)CCCCCC2 [Example 70, N-[3-(dimethylamino)-2,2-dimethylpropyl]-4,5,6,7,8,9-hexahydrocycloocta[b]thiophene-2-carboxamide] | 26.1 | EC50 (mouse CX3CR1 receptor): > 50 µM; Emax (mouse CX3CR1 receptor): 26%; EC50 (hCX3CR1): 4.1 µM; Emax (hCX3CR1): 61%
CN(CCO)CC1(CNC(=O)c2cc3c(s2)CCCCCC3)CCC1 [Example 30, N-[[1-[[2-hydroxyethyl(methyl)amino]methyl]cyclobutyl]methyl]-4,5,6,7,8,9-hexahydrocycloocta[b]thiophene-2-carboxamide] | 13.4 | –
O=C(NCC1(CN2CCC(O)C2)CCCC1)c1cc2c(s1)CCCCCC2 (racemic) [Example 25, N-[[1-[(3-hydroxypyrrolidin-1-yl)methyl]cyclopentyl]methyl]-4,5,6,7,8,9-hexahydrocycloocta[b]thiophene-2-carboxamide] | 23.1 | –
CN(C)CC1(CNC(=O)c2cc3c(s2)CCCCCC3)CCC1 [Example 23, N-[[1-[(dimethylamino)methyl]cyclobutyl]methyl]-4,5,6,7,8,9-hexahydrocycloocta[b]thiophene-2-carboxamide] | 9.5 | –
O=C(NCC1(CN2CCCC2)CC(O)C1)c1cc2c(s1)CCCCCC2 (stereo not shown) [Example 32, N-[[3-hydroxy-1-(pyrrolidin-1-ylmethyl)cyclobutyl]methyl]-4,5,6,7,8,9-hexahydrocycloocta[b]thiophene-2-carboxamide] | 11.4 | –
O=C(NCC1(CN2CCCC2)CCCC1)c1cc2c(s1)CCCCCC2 [Example 5, N-[[1-(pyrrolidin-1-ylmethyl)cyclopentyl]methyl]-4,5,6,7,8,9-hexahydrocycloocta[b]thiophene-2-carboxamide] | 10.2 | –
O=C(NCC1(CN2CCCCC2)CCCC1)c1cc2c(s1)CCCCCC2 [Example 15, N-[[1-(piperidin-1-ylmethyl)cyclopentyl]methyl]-4,5,6,7,8,9-hexahydrocycloocta[b]thiophene-2-carboxamide] | 20 | –
CC(C)(CNC(=O)c1cc2c(s1)CCCCCC2)CN1CCCC1 [Example 1, N-(2,2-dimethyl-3-pyrrolidin-1-ylpropyl)-4,5,6,7,8,9-hexahydrocycloocta[b]thiophene-2-carboxamide] | 13.9 | EC50 (mouse CX3CR1 receptor): 41.4 µM; Emax (mouse CX3CR1 receptor): 44%; THP-1 cell adhesion to HepG2 cells [1]: prevented THP-1 adhesion to HepG2 cells in a dose-dependent manner; EC50 (hCX3CR1): 1.3 µM; Emax (hCX3CR1): 60%
